We go through 14 compounds from patent US20060069110A1, “Substituted heterocyclic compounds and methods of use” (priority 2004, published 2006).

Usually IC50 stands for the concentration that gives 50% inhibition.

A value given as a limit tells only on which side of the number the result lay.

One test concerns THP1 cells (LPS induced TNF release). The experiment in a line: Lipopolysaccharide-Activated THP1 Cell TNF Production Assay. The class given is cell-based. Conditions: Homo sapiens, THP-1, 3 h, read-out: IC50 values in the THP1 cell assay (LPS induced TNF release). The procedure, abridged:
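THP1 cells at 1E6/mL were treated with 3-fold serial compound dilutions and LPS (1 μg/mL stock) for 3 h at 37 °C. Secreted TNF-α was quantified by electrochemiluminescent sandwich immunoassay. Percent of DMSO control versus concentration was fitted to a 4-parameter equation.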
On to `Cc1nccn1-c1cccc(C[C@H](C)Nc2nccc(N(C)c3ccnc(-c4ccccc4)n3)n2)c1` [Example 117, N^4-Methyl-N^2-((S)-1-(3-(2-methyl-1H-imidazol-1-yl)phenyl)propan-2-yl)-N^4-(2-phenylpyrimidin-4-yl)pyrimidine-2,4-diamine], for which the IC50 is at most 20 µM.

Still in this test, the particulars now being: Homo sapiens, THP-1; THP1 cells, bacterial LPS, secreted TNF-α after 3 h at 37° C.; read-out: IC50 values in the THP1 cell assay (LPS induced TNF release).
Consider `CN(c1nc(NCCc2cccnc2)ncc1F)c1nc(-c2ccccc2)ncc1F` [Example 69, 5-Fluoro-N^4-(5-fluoro-2-phenylpyrimidin-4-yl)-N^4-methyl-N^2-(2-(pyridin-3-yl)-ethyl)pyrimidine-2,4-diamine], for which the IC50 is at most 20 µM.
On to `CN(c1ccnc(NCCc2ccccc2)n1)c1nccc(-c2ccccc2)n1` [Example 184, N^4-Methyl-N^2-phenethyl-N^4-(4-phenylpyrimidin-2-yl)pyrimidine-2,4-diamine], for which the IC50 was at most 20 µM.
With `CN(c1ccnc(NC(C)(C)CN)n1)c1ccnc(-c2ccccc2)n1` [Example 27, N^2-(1-Amino-2-methylpropan-2-yl)-N^4-methyl-N^4-(2-phenylpyrimidin-4-yl)-pyrimidine-2,4-diamine], the IC50 was at most 20 µM.
On the same count and under the same terms, to `CC(Cc1ccc(F)c(CO)c1)Nc1nccc(N(C)c2cc(-c3ccccc3)c(=O)n(C)c2)n1` (centres unmarked) [Example 177, 5-((2-(1-(4-Fluoro-3-(hydroxymethyl)phenyl)propan-2-ylamino)pyrimidin-4-yl)(methyl)amino)-1-methyl-3-phenylpyridin-2(1 H)-one] belongs at most 20 µM; to `CN(c1ccnc(N[C@H](Cc2ccccc2)C(=O)O)n1)c1ccnc(-c2ccccc2)n1` [Example 45, (R)-2-(4-(Methyl(2-phenylpyrimidin-4-yl)amino)pyrimidin-2-ylamino)-3-phenyl-propanoic acid], at most 20 µM.
Take `COc1ccc(-c2cccc(N(C)c3ccnc(NCCc4ccccc4)n3)n2)cc1` [Example 140, N^4-(6-(4-Methoxyphenyl)pyridin-2-yl)-N^4-methyl-N^2-phenethylpyrimidine-2,4-diamine]: the IC50 was at most 20 µM.
As to `CC(=O)N1CCC(CNc2nccc(N(C)c3ccnc(-c4ccccc4)n3)n2)CC1` [Example 115, 1-(4-((4-(Methyl(2-phenylpyrimidin-4-yl)amino)pyrimidin-2-ylamino)methyl)-piperidin-1-yl)ethanone], the IC50 was at most 20 µM.
Take `CN(c1ccnc(N[C@@H](CCO)Cc2ccccc2)n1)c1ccnc(-c2ccccc2)n1` [(3R)-3-((4-(methyl(2-phenyl-4-pyrimidinyl)amino)-2-pyrimidinyl)amino)-4-phenyl-1-butanol]: the IC50 was at most 20 µM.
As for `CN(c1cnc(OCc2ccccc2)c(-c2ccccc2)c1)c1ccnc(NC2CCNCC2)n1` [N^4-(6-(Benzyloxy)-5-phenylpyridin-3-yl)-N^4-methyl-N^2-(piperidin-4-yl)-pyrimidine-2,4-diamine], the IC50 was at most 20 µM.
The same measure, in the same setting: to `CN(c1cncc(-c2ccccc2)n1)c1ccnc(N[C@H]2CC[C@H](N)CC2)n1` [Example 124, N^2-((1r, 4r)-4-Aminocyclohexyl)-N^4-methyl-N^4-(6-phenylpyrazine-2-yl)pyrimidine-2,4-diamine] belongs at most 20 µM; to `CC(C)n1cc(N(C)c2ccnc(N[C@@H](C)Cc3cccc(CN)c3)n2)cc(-c2ccccc2)c1=O` [5-((2-(((1S)-2-(3-(aminomethyl)phenyl)-1-methylethyl)amino)-4-pyrimidinyl)(methyl)amino)-1-(1-methylethyl)-3-phenyl-2(1H)-pyridinone], at most 20 µM.
Consider `CC(C)NCC[C@@H](Cc1ccccc1)Nc1nccc(N(C)c2ccnc(-c3ccccc3)n2)n1` [Example 58, (R)-N^2-(4-(Isopropylamino)-1-phenylbutan-2-yl)-N^4-methyl-N^4-(2-phenylpyrimidin-4-yl)pyrimidine-2,4-diamine], for which the IC50 was at most 20 µM.
For `CN(c1ccnc(NCCc2ccccc2)n1)c1ccnc(-c2ccccc2)n1` [Example 106, N^4-Methyl-N^2-phenethyl-N^4-(2-phenylpyrimidin-4-yl)pyrimidine-2,4-diamine], the IC50 was at most 20 µM.
